Experimental data from patent US10662225B2, “Backbone cyclized inhibitory peptides of myeloid differentiation factor 88 (MyD88)” (Yissum Research Development Company of the Hebrew …, priority 2016, dated 2020).
Numbered stars: 1 amine (or outer) side, 2 acyl side, 3 side chain; on linkers, the order of the positions; unused ones are H or OH. Bridge positions count the residues as written; N and C are the ends. Square brackets hold non-standard residues; d marks the D form. Peptide text beside a SMILES is read from it. CO = O=C([*:1])[*:2]; Nlys = NCCCCNCC(=O)O

Assays:
MyD88 dimerization = molecular target: T1, MyD88 dimerization (Homo sapiens, UniProt Q99836); assay: Co-immunoprecipitation of Flag-MyD88 with HA-MyD88 in HEK293 cells; type: cell-based; conditions: HEK293, IL-1 stimulation; 4×4MyDI at 20, 2, 0.2 μM; Myr-4×4MyDI at 0.2 or 2000 nM
T1 construct: constructs encoding HA-tagged full length MyD88 and Flag-tagged full length MyD88; expressed in transfected cells; host or cells: HEK293
Experimental: FIG. 10. 4×4MyDI blocks MyD88 dimerization. HEK293 cells were transfected with two plasmids, one encoding HA-MyD88 and the other encoding FLAG-MyD88 and after 48 hours the cells were either untreated (cont) or treated with 20 μM of the linear MyDI peptide, the scrambled version of the linear MyDI peptide (SEQ ID NO: 5,), or the 4×4MyDI at 20, 2, or 0.2 μM. After 3 h of treatment, cells were stimulated with recombinant human IL-1 (20 ng/ml) for 30 min and then lysed. Whole cell lysates (WCL) were immunoprecipitated with anti-HA beads (Thermo-Scientific) for 30 min and proteins were eluted with glycine Ph 2.0, neutralized, and loaded on an acrylamide gel for analysis. Proteins were transferred to nitrocellulose and the amount of Flag-MyD88 that co-precipitated with HA-MyD88 was detected by immunoblotting (IB) with anti-Flag antibody.
FIGS. 14A and 14B. […] Proteins were transferred to nitrocellulose and the amount of FLAG-MyD88 that co-precipitated with HA-MyD88 was detected by immunoblotting (IB) with anti-FLAG antibody. […] Percent inhibition of co-immunoprecipitation was calculated by comparing densitometry of bands in the treated lanes to control. […]
TLR and IL-1 receptor signaling proceeds through a multimeric protein signaling complex (the “Myddosome”) that is initiated by MyD88 homodimerization. […] Immunoprecipitated protein was eluted and analyzed by immunoblot using an antibody to Flag. […]

MyD88 TIR domain = molecular target: T2, MyD88 TIR domain (Homo sapiens, UniProt Q99836); assay: Competition assay: binding of biotinylated linear BB loop peptide to MyD88 TIR domain; conditions: different concentrations
T2 construct: made in house
Experimental: FIG. 9. 4×4MyDI binds to the BB loop region of the MyD88 TIR domain. A 96 well plate was coated with recombinant MyD88 (8 μg/ml) in coating buffer vs. buffer alone, and wells were blocked with 1% BSA. Biotinylated linear peptide was added to all wells (125 μg/ml) followed by streptavidin-HRP and substrate. The signal of linear peptide bound to its target was inhibited by incubation with the 4×4MyDI (*P<0.05) but not by incubation with the scrambled version of the linear peptide (SEQ ID NO: 5).
The ability of the 4×4MyDI compound to bind to the target region (the BB loop) of the MyD88 TIR domain, was evaluated using a newly-designed assay. For this goal a competition assay was established that tests the ability of the 4×4MyDI compound to prevent the binding of the biotinylated linear BB loop peptide to the MyD88 TIR domain. The MyD88 TIR domain was produced as a recombinant protein fused to the SUMO3 protein (Accession # NP_008867), purified, and attached to a 96 well plate. Binding of biotinylated RDVLPGT (SEQ. ID NO: 1) peptide was detected using streptavidin conjugated to horse radish peroxidase (HRP) followed by the addition of HRP substrate.

[1] = tested on: MyD88-dependent signaling; assay: TNFα production by THP-1 derived macrophages stimulated with PAM3csk; type: cell-based, human; conditions: THP-1 macrophages, PAM3csk overnight
Experimental: FIG. 5. Human monocytic THP-1 cells were differentiated to macrophages and were stimulated with PAM3csk overnight in the absence or presence of the cyclic 4-carbon bridge peptide or 6-carbon bridge peptide. TNFα levels in the supernatants were determined by ELISA.
Both cyclic peptides were synthesized with the addition of a tryptophan group to the N-terminus to enable accurate quantification of the molecules.

T1 sequence (Q99836 whole entry): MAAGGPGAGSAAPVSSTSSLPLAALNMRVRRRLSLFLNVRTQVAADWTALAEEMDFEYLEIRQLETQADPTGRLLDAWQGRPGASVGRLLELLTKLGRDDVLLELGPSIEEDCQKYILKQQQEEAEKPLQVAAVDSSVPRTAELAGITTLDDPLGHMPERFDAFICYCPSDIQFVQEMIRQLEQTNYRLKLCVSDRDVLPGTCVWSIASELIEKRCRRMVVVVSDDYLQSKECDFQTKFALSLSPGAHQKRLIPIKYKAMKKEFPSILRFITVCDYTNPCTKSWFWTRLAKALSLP
T2 sequence (Q99836 151-296): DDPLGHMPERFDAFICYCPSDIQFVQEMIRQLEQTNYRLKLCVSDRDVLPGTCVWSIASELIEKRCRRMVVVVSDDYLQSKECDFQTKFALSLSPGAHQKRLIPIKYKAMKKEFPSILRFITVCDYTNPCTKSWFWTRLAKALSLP

## CC(C)C[C@@H]1NC(=O)[C@H](C(C)C)NC(=O)[C@H](CC(=O)O)NC(=O)[C@H](CCCNC(=N)N)NC(=O)CN(C(=O)[C@@H](N)Cc2c[nH]c3ccccc23)CCCCNC(=O)NCCCCN(CC(=O)NCC(=O)N[C@H](C(N)=O)[C@@H](C)O)C1=O [4×4MyDI] (H-W[Nlys]RDVL[Nlys]GT-NH2; linker 2-7 via CO; N-terminus assumed)
MyD88 dimerization
  MyD88 dimerization (Flag-MyD88 co-precipitated with HA-MyD88): dramatically reduces the dimerization
MyD88 TIR domain
  inhibition of binding of the biotinylated peptide to the MyD88 TIR domain: competitively inhibited
[1]
  inhibition of TNFα production: outperformed the 6-carbon bridge peptide
